Measurements reported in patent US11786507B2, “Methods of treating HIV-associated neurological disorders (HAND)” (priority 2020, dated 2023).

Legend:
[1] = tested on: hippocampal slice cultures; conditions: cited from earlier work
striatal neurons = conditions: cited from earlier work
[2] = tested on: cerebellar granule neurons; conditions: cited from earlier work
iTat mice [3] = test: Open Field Test (OPT), locomotor activity; type: in vivo, mouse
Source text: (§1) Doxycycline (Dox)-inducible and astrocyte-specific HIV-1 Tat-transgenic mice (iTat) were generated as previously described.^38 Wild-type (Wt, C57BL/6) and α7 nAChR knockout mice (α7^−/−, B6.129S7-Chrna^7tm1Ba/J) were purchased from the Jackson Laboratory (Bar Harbor, ME). All the animal procedures were approved by the Institutional Animal Care and Use Committee. Mice were housed with a 12-hour light and 12-hour dark photoperiod and provided water and food ad libitum. α7^−/− iTat mice were generated by cross breeding iTat mice with α7^−/− mice. α7^−/− genotyping was slightly modified with the JumpStart™ Taq DNA Polymerase-based PCR (JumpStart™ Taq DNA Polymerase, Sigma, catalog #D9307). […] Mice of 10-14 weeks old with body weights of 20-35 grams were fed with Dox-containing diet (0.625 g/kg, Envigo, catalog #TD.01306) as stated.
(§2) Open Field Test (OPT) and Morris Water Maze (MWZ) were performed sequentially using a computerized video tracking system (Anymaze, Stoelting) to determine the spontaneous locomotor activity and spatial learning and memory, respectively. For OPT, each mouse was allowed to move freely around a clear acrylic chamber (40.5×40.5×30.5 cm) for 10 minutes. Travel distance and maximum speed was determined by the AnyMaze software. For MWZ, a circle pool (1.2 m diameter) surrounded with a curtain was divided into four equal quadrants, and four signs with different shape were fixed onto the middle of each quadrant wall above the opaque water (24±1° C.). A hidden platform (1.5 cm below water surface) was put into a certain quadrant. Two stages consisting of 5-day training and probe test were carried out. In the training stage, four trials with a 15-20 minute interval were conducted in the every-day training, and for each trial mice were allowed to freely seek the platform within 90 seconds right after they were randomly put into one quadrant facing to the pool wall. If the mice found the platform within 90 seconds, 10 seconds would be added to allow them staying on the platform for memorizing, however, if failed, they would be directed toward the platform and allowed to stay on it for 15 seconds. Mice that were immobile or floating and unable to find the platform during the training stages were excluded from the experiments. Probe test was carried out on the next day following the 5-day training stage with a 60 seconds trial, and the platform was removed to prevent the mice from climbing onto it during the testing. One day after the behavioral tests, mice were euthanized and the brains were harvested.
(§3) To determine if α7 nAChR is involved in HAND, iTat mice were fed with Dox-containing food pellets for 7 days, injected s.c. with a well-studied and highly specific positive allosteric modulator (PAM) PNU-120596 of α7 nAChR^73,74 for 5 days, and then subjected to open field test (OPT) for locomotor activity on day 14, and Morris Water Maze test (MWZ) for learning and spatial memory on day 15-20, and euthanized to harvest tissues on day 21 (FIG. 1A). Dox-containing food pellet feeding and PAM injection continued during the next 7 days of behavioral tests. To minimize the effects of injection on behavioral tests, PAM was injected 5 hours after each behavioral test.

iTat mice [4] = test: Morris Water Maze (MWZ), training stage and probe test; type: in vivo, mouse
Source text: as §1, §2
as §3, with “[…],” for “injected s.c. with a well-studied and highly specific positive allosteric modulator (PAM) PNU-120596 of α7 nAChR^73,74 for 5 days,”

iTat mice [5] = test: Western blotting of SYP, PSD-95, GFAP, Iba-1 in cortex and hippocampus; type: in vivo, mouse; conditions: CORT and HIP, SB239063-treated iTat vs Wt
Source text: as §1
A RIPA buffer (50 mM Tris.HCl, pH 8.0, 280 mM NaCl, 0.5% NP-40, 1% C24H39NaO4, 0.2 mM EDTA, 2 mM EGTA and 10% glycerol) supplemented with protease inhibitors (Millipore-Sigma, catalog #S8830) and phosphatase inhibitors (Millipore-Sigma, catalog #4906845001) was used to lyse the brain tissues and cultured cells with brief sonication on ice. Protein concentrations of the lysates were determined using a Bio-Rad DC protein assay kit (Bio-Rad, catalog #5000111). Lysates were denatured in the SDS-PAGE loading buffer at 100° C. for 10 min, then electrophoretically separated by 8-15% SDS-PAGE, blotted onto 0.45 μm polyvinylidene fluoride membrane (GE Healthcare Life Sciences, catalog #10600023), and probed using appropriate antibodies against PSD-95 (Abcam, catalog #ab18258, and 1:2000 dilution), SYP (Abcam, catalog #ab8049, and 1:1000 dilution), Iba-1 (Wako, catalog #016-20001, and 1:500 dilution) and GFAP (DAKO, catalog #z330s, and 1:2000 dilution), p-p38 (Santa Cruz, catalog #sc-166182, and 1:1000 dilution), p38 (Santa cruz, catalog #sc-535, and 1:1000 dilution), p-JNK (Santa cruz, catalog #sc-6254, and 1:1000 dilution), JNK (Santa cruz, catalog #sc-571, and 1:1000 dilution), p-ERK (Santa cruz, catalog #sc-7383, and 1:1000 dilution), and ERK (Santa cruz, catalog #sc-514302, and 1:1000 dilution), α7 nAChR (Alomone, catalog #ANC-007, and 1:1000 dilution) and β-actin (Sigma-Aldrich, catalog #A1978, and 1:2000 dilution). A Bio-Rad ChemicDoc imaging system (Bio-Rad) and Image J were used for image capturing and analysis, respectively. […]

[6] = iTat vs Wt mice, SB239063 15 mg/kg/day i.p.

For Oc1ccc(-c2nc(-c3ccc(F)cc3)c(-c3ccncc3)[nH]2)cc1 [SB202190], the “Tat-induced inflammation and oxidation” value [1] is listed as “decreased”.

For C[S+]([O-])c1ccc(-c2nc(-c3ccc(F)cc3)c(-c3ccncc3)[nH]2)cc1 (stereo not drawn) [SB203580], the “Tat-induced neurite losses and cell death” value (striatal neurons) is given as “failed to block” and the Tat-induced apoptosis [2] is given as “prevented”.

With COc1nccc(-c2c(-c3ccc(F)cc3)ncn2C2CCC(O)CC2)n1 (stereo not drawn) [SB239063] the “OPT travel distance and maximum speed, Wt vs iTat mice” value (iTat mice [3]; SB239063 15 mg/kg/day i.p., male and female) was “no significant differences in travel distance and maximum speed between Wt and iTat mice”, the “OPT performance, female vs male mice” value (iTat mice [3]; Wt and iTat mice in response to SB239063) was “both female Wt and female iTat mice performed better in the OPT than male Wt and male iTat mice” and the “OPT travel distance, SB239063-treated vs vehicle-treated” value (iTat mice [3]; female Wt and iTat mice, 15 mg/kg/day i.p.) was “difference of travel distance between SB239063-treated and vehicle-treated female mice”. The “MWZ probe test platform entries, time at/distance to target quadrant, time at/distance to platform” value (iTat mice [4]; SB239063-treated female iTat mice vs vehicle-treated female Wt and iTat and SB239063-treated female Wt) was “fewer platform entries, shorter time at target quadrant, distance to target quadrant, time at platform, and distance to platform”, the “Cognition, learning and memory effects” value (iTat mice [4]; Wt mice treated with SB239063) was “Some beneficial effects” and the “MWZ probe test latency to platform” value (iTat mice [4]; female iTat mice, SB239063 vs vehicle) was “longer latency to platform than vehicle-treated female iTat mice”. For the same molecule, the “MWZ training stage cumulative distance” value (iTat mice [4]; [6]) was “difference between SB239063-treated male iTat and male Wt mice on day 2 and 3 and female iTat and Wt mice on day 4”, the “MWZ training stage escape latency” value (iTat mice [4]; [6]) was “even longer escape latency than Wt mice, with differences on day 3 and 4 for male mice” and the “MWZ probe test platform entries, distance to target quadrant, distance to platform” value (iTat mice [4]; male iTat vs male Wt mice, SB239063 15 mg/kg/day i.p.) was “fewer platform entries, shorter distance to target quadrant and distance to platform than Wt male mice”. The “SYP, GFAP and Iba-1 expression” value (iTat mice [5]; female mice) was “lower SYP, GFAP and Iba-1 with differences than SB239063-treated Wt mice”, the PSD-95 expression (iTat mice [5]; male and female) was “lower PSD-95 than SB239063-treated Wt mice” and the “SYP and GFAP expression” value (iTat mice [5]; male mice) was “no differences of SYN and GFAP (except HIP) from SB239063-treated Wt mice”.
